# Key:
# [1] = Cytotoxicity against Vero cells (sulforhodamine B staining); assay type: cell-based; details: African green monkey, Vero cells (ATCC CCL-81), 37° C.
# Experimental: (§1) Hirsutellones A, B and C were tested for cytotoxicity by incubating with Vero cells (African green monkey kidney cell line from American Type Culture Collection USA; ATCC # CCL-81). Each compound was dissolved in dimethyl sulfoxide and then diluted in the culture medium of the Vero cells (Eagle's Minimum Essential with 10% heat-inactivated fetal bovine serum and antibiotics). The Vero cells and the compound were incubated together in a 96-well microplate at a cell concentration of 1.9×10^4 cells/190 μl/well, in a CO2 incubator at 37° C. for 3 days.
# (§2) The numbers of the cells in the wells were then determined by a staining method (Skehan, P., et al., J. Natl Cancer Inst., 82:1107-1112 (1990)). The cells were initially fixed by 50% cold trichloroacetic acid (TCA) at 4° C. for 30 minutes. The cells were then washed with water 4 times. After drying, the cells were stained with 0.05% sulforhodamine B in 1% acetic acid for 30 minutes, washed with ^1% acetic acid 4 times and dried at room temperature. Finally, 10 mM Tris-base pH 10 was added. The absorbance at 510 nm of test wells was measured by an ELISA microplate reader. The absorbance was proportionate to the number of the viable cells in the wells. The toxicity level of the compound was recorded as the concentration that rendered the number of viable cells to be less than half of the negative control wells, which contained the cells with DMSO but not the compound. Ellipticine was used as a positive control. The toxicity level of each compound against Vero cells was expressed as IC50.
# [2] = Cytotoxicity against KB cells (sulforhodamine B staining); assay type: cell-based; details: human, KB cells (oral epidermoid carcinoma, ATCC CCL-17), starting concentration 20 μg/ml
# Experimental: as §1, §2
# (§3) Hirsutellones were also tested for cytotoxicity against multiple human cancer cell lines, to study the effects on human cells in vitro. The cancer cell lines included KB cells (oral epidermoid carcinoma; ATCC # CCL-17), BC cells (breast cancer) and NCI-H187 cells (lung cancer; ATCC # CRL-5804) The same protocol as that for the cytotoxicity assay against Vero cells was used, except for the starting compound concentration which was 20 μg/ml.
# [3] = Cytotoxicity against BC cells (sulforhodamine B staining); assay type: cell-based; details: human, BC cells (breast cancer), starting concentration 20 μg/ml
# Experimental: as §1, §2, §3
# [4] = Cytotoxicity against NCI-H187 cells (sulforhodamine B staining); assay type: cell-based; details: human, NCI-H187 cells (lung cancer, ATCC CRL-5804), starting concentration 20 μg/ml
# Experimental: as §1, §2, §3
# [5] = system: Mycobacterium tuberculosis H37Ra strain (ATCC 25166); test: Microplate Alamar Blue Assay (MABA), antituberculous activity; assay type: cell-based; details: M. tuberculosis H37Ra, two-fold serial dilution from 50 μg/ml
# Experimental: Preparation of Mycobacteria Mycobacterium tuberculosis H37Ra strain (ATCC 25166) was grown in 100 ml of Middlebrook 7H9 broth supplemented with 0.2% glycerol, 1.0 g/l of casitone, 10% OADC, and 0.05% Tween 80. The complete medium was referred to as 7H9GC-Tween. The bacteria were incubated in 500-ml flasks on a rotary shaker at 200 rpm and 37° C. until the optical density at 550 nm reached 0.4-0.5. The bacteria were washed twice with phosphate-buffered saline and then suspended in 20 ml of phosphate-buffered saline. The suspension was passed through an 8-μm-pore-size filter to eliminate clumps. The number of bacteria in the filtrates were counted by plating the bacteria in Middlebrook 7H10 agar. The filtrates were stored at −80° C.
# Microplate Alamar Blue Assays (MABA) Anti-tuberculous testing was performed in a 96-well microplate as previously described (Collins, L. and Franzblau, S. G., Antimicrob. Agents Chemother., 41:1004-1009 (1997)). Outer perimeter wells were filled with sterile water to prevent dehydration of the test wells. Crude extracts were initially diluted with dimethyl sulfoxide, and then were diluted to a concentration of 400 μg/ml in Middlebrook 7H9 medium containing 0.2% V/V glycerol and 1.0 g/l casitone (7H9GC). The wells in rows B to G in columns 2, 4, 5, 6, 8, 9, 10 of the microplate were filled with 100 μl of 7H9GC. The wells in column 11 were inoculated with 200 μl of the medium to serve as media controls (M). Bacteria (only) controls (B) were set-up in column 10. One hundred microliters of each crude extract solution (400 μg/ml) were added to three wells in one row in columns 2 (or 6), 3 (or 7) and 4 (or 8). One hundred microliters were transferred from column 4 (or 8) to column 5 (or 9), the contents of the wells in column 5 (or 9) were mixed well and then 100 μl of mixed medium were discarded. The wells in columns 2 and 6 served as test sample controls.
# Frozen bacterial inocula were diluted 1:200 in 7H9GC medium. One hundred microliters of the bacteria were added to the wells in rows B to G in columns 3 (or 7), 4 (or 8), 5 (or 9) and 10, resulting in final bacterial titers of approximately 5×10^4 CFU/ml. The wells in column 10 served as bacteria (only) controls (B). Final concentrations of extracts were 200, 100 and 50 μg/ml in columns 3 (or 7), 4 (or 8) and 5 (or 9), respectively.
# The plates were sealed with Parafilm and were incubated at 37° C. for 5 days. At day 6 of incubation, 20 μl of Alamar Blue reagent and 12.5 μl of 20% Tween 80 were added to well B10 (B) and B11 (M). The plates were re-incubated at 37° C. for 24 h. […] If the B wells became pink by 24 h, reagent was added to the entire plate. If the well remained blue, the additional M and B wells were tested daily until a color change occurred at which time reagents were added to all remaining wells. The microplates were resealed with Parafilm and were then incubated at 37° C. The results were recorded 24 h after adding reagent.
# Blue color in the well was interpreted as no growth, reflecting the activity of the test compound in the well. A pink color was scored as growth and reflected the lack of activity of the test compound. A few wells appeared violet after 24 h of incubation, but they invariably changed to pink after extra day of incubation and thus were scored as growth (while the adjacent blue wells remained blue). […]
smiles,measurement,setting,value
"Cc1c2ccncc2c(C)c2c1[nH]c1ccccc12 [Ellipticine, reference compound]",IC50 at 3 days,[1],0.4 µg/mL
same,IC50 at 3 days,[2],1.3 µg/mL
same,IC50 at 3 days,[3],1.5 µg/mL
same,IC50 at 3 days,[4],0.39 µg/mL
C=CC1C=CC2C3CC(C)CCC3C3Oc4ccc(cc4)CC4(O)CC(C(=O)N4)C(=O)C1C23 (centres unmarked) [Hirsutellone B],MIC,[5],0.78 µg/mL
same,IC50 at 3 days,[1],> 50 µg/mL
same,melting point,,261 to 263 °C (dec.)
same,IC50 at 3 days,[2],> 20 µg/mL
same,IC50 at 3 days,[3],> 20 µg/mL
same,IC50 at 3 days,[4],6 µg/mL
C=CC1C=CC2C3CC(C)CCC3C3Oc4ccc(cc4)CC4(O)NC(=O)C5(OC45)C(=O)C1C23 (centres unmarked) [Hirsutellone C],MIC,[5],0.78 µg/mL
same,IC50 at 3 days,[1],12 µg/mL
same,melting point,,234 to 235 °C (dec.)
same,IC50 at 3 days,[2],4.6 µg/mL
same,IC50 at 3 days,[3],3.2 µg/mL
same,IC50 at 3 days,[4],8.3 µg/mL
"NC[C@H]1O[C@H](O[C@H]2[C@H](O)[C@@H](O[C@H]3O[C@H](CO)[C@@H](O)[C@H](N)[C@H]3O)[C@H](N)C[C@@H]2N)[C@H](O)[C@@H](O)[C@@H]1O [kanamycin, reference compound]",MIC,[5],2.5 µg/mL
C=CC1C=CC2C3CC(C)CCC3C3Oc4ccc(cc4)CC4C(=O)NC(=O)C4C(=O)C1C23 (centres unmarked) [Hirsutellone A],MIC,[5],0.78 µg/mL
same,IC50 at 3 days,[1],> 50 µg/mL
same,IC50 at 3 days,[2],> 20 µg/mL
same,IC50 at 3 days,[3],> 20 µg/mL
same,IC50 at 3 days,[4],> 20 µg/mL
"NNC(=O)c1ccncc1 [isoniazid, reference compound]",MIC,[5],0.04 µg/mL

# Reference: patent US7414069B2, “Antituberculosis compounds, Hirsutellones A, B, and C” (National Center for Genetic Engineering & Biotechnology, …, priority 2004, dated 2008)
